Test results from patent publication US8410310B2, “Trypsin-like serine protease inhibitors, and their preparation and use” (The Medicines Company (Leipzig) GmbH, priority 2006, dated 2013).

Tests used:
[1] = target: T1, Human factor XIa (Homo sapiens, UniProt P03951); test: Inhibition constants against purified human serine proteases: FXIa; format: biochemical
T1 construct: Human factor Xa, factor XIa, factor XIIa, thrombin, and plasma kallikrein were purchased; purchased Enzyme Research Laboratories (via Haemochrom, Essen)
Text: (§1) Aprotinin and tranexamic acid were purchased from SIGMA (Schnelldorf, Germany). Human factor Xa, factor XIa, factor XIIa, thrombin, and plasma kallikrein were purchased from Enzyme Research Laboratories, and human plasmin from Chromogenix (both via Haemochrom, Essen, Germany). Various synthetic peptide chromogenic substrates used for determination of inhibition constants were obtained from Pentapharm (Basel, Switzerland), Roche (Mannheim, Germany), and Chromogenix: Chromozyme PL for plasmin, S2302 for plasma kallikrein, Pefachrome FXa for factor Xa, Chromozym XII for FXIIa, Pefachrom tPA for thrombin, and Pefachrome PCa for factor XIa. […]
(§2) Inhibition of purified human serine proteases by Compound No. 3 and aprotinin was studied using the established methods described herein in Example 3 (i.e., Stürzebecher et al., 1997). […] Steady-state velocities of substrate conversion were obtained from progress curves generated by continuous monitoring of the absorbance at 405 nm with a microplate reader (Multiskan Ascent, Thermo Electron Corporation, Dreieich, Germany). […] Inhibition constants (Ki) were calculated from non-linear fits of individual data sets to the Michaelis-Menten equation for competitive inhibitors using an enzyme kinetic analysis software (SIGMA Plot® 9.0 Enzyme Kinetics Module, SSI, San Jose, Calif.). […]

[2] = test system: t-PA-induced lysis of whole blood clots; test: Whole blood fibrinolysis assay (ROTEM, EXTEM with t-PA); format: cell-based, human; conditions: for IC50: Ly60, read-out: concentration resulting in 50% suppression of clot lysis (IC50, median [25%; 75% percentile]); for potency at inhibiting clot lysis relative to tranexamic acid: whole blood and plasma clot lysis, versus tranexamic acid
Protocol: Venous blood was withdrawn from the antecubital vein from healthy volunteers after written informed consent in accordance with local and federal guidelines with approval of the local review board (Ethikkommission, Klinikum Charité, Sauerbruchweg 5, 10117 Berlin). The blood was mixed with 0.11 mol/L sodium citrate (1:10). For ROTEM® analysis, whole citrated blood was used within 8 h after collection. Platelet-rich plasma (PRP) was prepared from citrated blood by centrifugation at 330×g for 10 min at room temperature, platelet-poor plasma (PPP) was collected following centrifugation at 1220×g for 12 min. The PRP was then adjusted to 3×10^8 platelets per mL using the autologous PPP. PRP was maintained at room temperature for less than 4 h before analysis. The remaining PPP was subjected to a high-speed centrifugation at 40,000×g for 30 min at 4° C. to remove any particulate material and was then stored at −70° C. until use.
The antifibrinolytic activity of Compound No. 3 in comparison to aprotinin and tranexamic acid was investigated in plasma and whole blood assays. In both assays, tissue factor was added to initiate rapid clot formation via the extrinsic pathway which produces a clot that remains stable for several hours under normal conditions. Supplementation of plasma or whole blood with tissue-type plasminogen activator (t-PA) before stimulation results in activation of endogenous plasminogen and thus fibrinolysis while the initial clot formation is not impaired. […] A final concentration of 50 U/mL and 100 U/mL in plasma and whole blood, respectively, was chosen to achieve complete lysis within about 60 min. In the presence of antifibrinolytics, clot lysis is delayed in a concentration-dependent manner.
Fibrinolysis in whole blood was studied with rotational thromboelastometry (Luddington, Clin. Lab. Haematol. 27: 81-90, 2005) using a computerized, multi-channel ROTEM® instrument (Pentapharm, Munich, Germany) (Ganter et al., Anesth. Analg. 106: 1366-75, 2008). Activation of test samples accelerated the measurement process and enhanced reproducibility compared with conventional thromboelastography. To allow observation of fibrinolysis, ROTEM® analysis with tissue factor activation (EXTEM) was modified through addition of t-PA (Nielsen et al. Blood Coagul. Fibrinolysis 17: 75-81, 2006). Citrated blood was pre-incubated at 37° C. for 5 min with test compound or saline before tissue factor, CaCl2 and t-PA (100 U/mL final concentration) were added to start the reaction. Fibrinolysis was determined by measuring loss of clot strength with time and was recorded as Ly60 (percentage reduction of the maximum amplitude at 60 min after the onset of clotting). In control samples without inhibitor, clots were lysed completely within 60 min, such that Ly60 was above 90%. By plotting Ly60 versus test compound concentration, IC50 values for each compound were calculated.

[3] = test system: whole blood clotting; test: Whole blood coagulation assay (ROTEM, INTEM/EXTEM); format: cell-based, human; conditions: for whole blood coagulation times (INTEM, EXTEM clotting time): 100 to 1000 nM; for clot strength (ROTEM maximum amplitude): over the concentration range tested (data not shown)
Text: Since Compound No. 3 inhibits multiple proteases of the coagulation system, we investigated possible anticoagulant properties using established tests in vitro. Whereas tissue factor is the physiologic trigger of coagulation, both extrinsic and contact-mediated stimulation contribute to hemostatic activation under conditions like CPB (Boisclair et al. Blood 82: 3350-7, 1993 and Edmunds et al., Ann. Thorac. Surg. 82: 2315-22, 2006). We therefore studied the impact of Compound No. 3 and aprotinin on coagulation in plasma and whole blood following both intrinsic and extrinsic stimulation. Tranexamic acid has no influence on other proteases than plasminogen and, therefore, is not included in these experiments.
The influence on whole blood clotting was assayed with rotational thrombelastometry (Ganter et al., Anesth. Analg. 106: 1366-75, 2008) using ellagic acid (INTEM reagent) as activator of the intrinsic system or tissue factor (EXTEM reagent) as extrinsic coagulation activator. Following a 5-min pre-incubation with test compounds or saline, citrated human blood was subjected to ROTEM® analysis according to the manufacturer's instructions. ROTEM® clotting time (equal to reaction time, r) and maximum clot strength (equal to maximum amplitude) were obtained as coagulation parameters.

[4] = target: plasma kallikrein (Homo sapiens, UniProt P03952); test: Inhibition constants against purified human serine proteases: plasma kallikrein; format: biochemical; design: purchased Enzyme Research Lab. / Enzyme Research Laboratories
Text: as §1, §2

[5] = human whole blood, t-PA 100 U/mL

Sequence of plasma kallikrein (P03952 391-638 limits assumed): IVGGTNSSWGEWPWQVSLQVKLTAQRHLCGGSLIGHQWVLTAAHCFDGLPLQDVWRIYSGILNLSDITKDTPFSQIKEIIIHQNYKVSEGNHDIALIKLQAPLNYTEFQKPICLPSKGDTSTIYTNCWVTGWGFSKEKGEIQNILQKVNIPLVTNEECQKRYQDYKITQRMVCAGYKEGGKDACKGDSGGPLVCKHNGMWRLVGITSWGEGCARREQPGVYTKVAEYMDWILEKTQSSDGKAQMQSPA
Sequence of plasma kallikrein (P03952 20-390 partner limits assumed): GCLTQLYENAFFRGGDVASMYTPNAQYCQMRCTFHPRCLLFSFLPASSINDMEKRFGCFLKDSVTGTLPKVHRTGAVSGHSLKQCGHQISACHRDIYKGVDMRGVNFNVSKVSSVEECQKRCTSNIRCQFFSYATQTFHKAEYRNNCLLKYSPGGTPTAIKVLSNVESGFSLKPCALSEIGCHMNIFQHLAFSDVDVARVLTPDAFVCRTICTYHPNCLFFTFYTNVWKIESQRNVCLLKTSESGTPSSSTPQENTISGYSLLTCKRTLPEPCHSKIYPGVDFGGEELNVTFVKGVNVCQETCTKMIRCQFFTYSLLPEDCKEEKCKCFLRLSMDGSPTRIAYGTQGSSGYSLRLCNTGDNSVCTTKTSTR
T1 sequence (P03951 388-625 limits assumed): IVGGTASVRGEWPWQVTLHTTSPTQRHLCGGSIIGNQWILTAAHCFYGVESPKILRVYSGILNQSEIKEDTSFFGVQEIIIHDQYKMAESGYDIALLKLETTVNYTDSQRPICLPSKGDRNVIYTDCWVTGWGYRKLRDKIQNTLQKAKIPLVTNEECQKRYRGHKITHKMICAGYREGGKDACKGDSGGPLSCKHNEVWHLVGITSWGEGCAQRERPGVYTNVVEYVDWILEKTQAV
T1 sequence (P03951 19-387 partner limits assumed): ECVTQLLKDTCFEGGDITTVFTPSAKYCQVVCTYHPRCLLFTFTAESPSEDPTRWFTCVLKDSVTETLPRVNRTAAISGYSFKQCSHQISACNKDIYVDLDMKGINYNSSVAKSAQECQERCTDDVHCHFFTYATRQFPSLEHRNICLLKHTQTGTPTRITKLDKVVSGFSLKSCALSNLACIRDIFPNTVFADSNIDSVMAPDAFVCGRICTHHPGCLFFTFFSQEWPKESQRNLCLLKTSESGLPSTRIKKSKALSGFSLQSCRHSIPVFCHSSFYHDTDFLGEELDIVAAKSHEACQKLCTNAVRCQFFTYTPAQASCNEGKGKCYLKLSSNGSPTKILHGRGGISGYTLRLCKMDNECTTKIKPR

Compound | Ki ([1]; 50 mM Tris-HCl pH 8.0, 154 mM NaCl, Pefachrome PCa) [nM] | stronger inhibition of FXIa than aprotinin ([1]; versus aprotinin) [fold] | IC50 [2, 5] [nM] | concentration that largely suppresses clot lysis / effective inhibition ([2]; whole blood ROTEM, t-PA-induced lysis) [nM] | potency at inhibiting clot lysis relative to tranexamic acid [2] [fold] | whole blood coagulation times (INTEM, EXTEM clotting time) [3] | clot strength (ROTEM maximum amplitude) [3] | Ki ([4]; 50 mM Tris-HCl pH 8.0, 154 mM NaCl, S2302) [nM] | stronger inhibition of plasma kallikrein than aprotinin ([4]; versus aprotinin) [fold] | IC50 of clot lysis expressed in KIU/mL ([2]; human whole blood, t-PA 100 U/mL, converted from nM) [KIU/mL] | intrinsic ROTEM clotting times ([3]; higher aprotinin concentrations (data not shown))
N=C(N)c1ccc(CNC(=O)[C@H](Cc2cccc(CN)c2)NC(=O)[C@@H](CCCc2ccccc2)NS(=O)(=O)Cc2cccc(C(=O)O)c2)cc1 [compound 3, 3-HOOC-Bzls-d-Ppg-Phe(3-Ame)-4-Amba×2 acetate] | 18 ± 1 | 100 | 150 | 600 | ~10 | significant prolongation | Neither Compound No. 3 nor aprotinin impaired clot strength | 0.019 ± 0.003 | 2000 | – | –
aprotinin | – | – | 345 | – | ~10 | almost no influence | Neither Compound No. 3 nor aprotinin impaired clot strength | – | – | 16 | marked prolongation
